According to PubChem BioAssay AID212 (DTP/NCI, 2004):
Values joined by “and” are separate entries in the source; they are usually repeats but may differ in a detail not shown here. Equal entries are not always repeated. Inconclusive results are not listed.

Test system: BDF1 mice, colon carcinoma 38 sc, T/C %
Assay: NCI In Vivo Anticancer Drug Screen. Data for tumor model Colon Carcinoma 38 (subcutaneous) in B6D2F1 (BDF1) mice
Details: endpoint: median tumor weight (est.), higher = larger tumour
Procedure, shortened: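 Ratio of survival or tumor size, compound-treated animals relative to vehicle controls, in tumor-bearing mice.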

[1] = dose: 50.0 mg/kg/injection, schedule: Q07DX002 (ip), vehicle: saline
[2] = dose: 100.0 mg/kg/injection, schedule: Q07DX002 (ip), vehicle: saline
[3] = dose: 200.0 mg/kg/injection, schedule: Q07DX002 (ip), vehicle: saline
[4] = dose: 25.0 mg/kg/injection, schedule: Q07DX002 (ip), vehicle: saline

Question: With `O=c1[nH]cnc2c1ccn2C1OC(CO)C(O)C1O` (stereo not drawn) as the molecule, how does the T/C (dose: 1.5 mg/kg/injection, schedule: Q07DX002 (ip), vehicle: saline) read?
Answer: 88 % of control

Question: And the T/C (dose: 3.0 mg/kg/injection, schedule: Q07DX002 (ip), vehicle: saline)?
Answer: 118 % of control

Question: And the T/C (dose: 6.0 mg/kg/injection, schedule: Q07DX002 (ip), vehicle: saline)?
Answer: 100 % of control

Question: What about the T/C (dose: 12.0 mg/kg/injection, schedule: Q07DX002 (ip), vehicle: saline) of the same molecule?
Answer: 86 % of control

Question: And the T/C (dose: 24.0 mg/kg/injection, schedule: Q07DX002 (ip), vehicle: saline)?
Answer: 63 % of control

Question: How did the T/C [1] turn out when `CCCCCC[C@@H](O)C/C=C\CCCCCCCC(=O)OCCO` was run?
Answer: 113 % of control

Question: And the T/C [2]?
Answer: 72 % of control

Question: And the T/C [3]?
Answer: 113 % of control

Question: What about the T/C (dose: 400.0 mg/kg/injection, schedule: Q07DX002 (ip), vehicle: saline) of the same molecule?
Answer: 117 % of control

Question: And the T/C (dose: 800.0 mg/kg/injection, schedule: Q07DX002 (ip), vehicle: saline)?
Answer: 74 % of control

Question: What about the T/C (dose: 1600.0 mg/kg/injection, schedule: Q07DX002 (ip), vehicle: saline) of the same molecule?
Answer: 85 % of control

Question: For `CC(=O)Nc1ccc(O)c(O)c1`, which T/C (dose: 12.5 mg/kg/injection, schedule: Q07DX002 (ip), vehicle: saline with Tween-80) is on record?
Answer: 112 % of control

Question: What about the T/C (dose: 25.0 mg/kg/injection, schedule: Q07DX002 (ip), vehicle: saline with Tween-80) of the same molecule?
Answer: 86 % of control

Question: What about the T/C (dose: 50.0 mg/kg/injection, schedule: Q07DX002 (ip), vehicle: saline with Tween-80) of the same molecule?
Answer: 100 % of control and 102 % of control

Question: What about the T/C (dose: 100.0 mg/kg/injection, schedule: Q07DX002 (ip), vehicle: saline with Tween-80) of the same molecule?
Answer: 66 % of control and 83 % of control

Question: And the T/C (dose: 200.0 mg/kg/injection, schedule: Q07DX002 (ip), vehicle: saline with Tween-80)?
Answer: 90 % of control and 95 % of control

Question: And the T/C (dose: 400.0 mg/kg/injection, schedule: Q07DX002 (ip), vehicle: saline with Tween-80)?
Answer: 74 % of control and 75 % of control and 86 % of control

Question: And the T/C (dose: 800.0 mg/kg/injection, schedule: Q07DX002 (ip), vehicle: saline with Tween-80)?
Answer: 72 % of control

Question: How did the T/C (dose: 6.25 mg/kg/injection, schedule: Q07DX002 (ip), vehicle: saline) turn out when `O=C(O)C1CSCN1` (stereo not drawn) was run?
Answer: 110 % of control

Question: And the T/C (dose: 6.25 mg/kg/injection, schedule: Q07DX002 (ip), vehicle: water)?
Answer: 106 % of control

Question: And the T/C (dose: 12.5 mg/kg/injection, schedule: Q07DX002 (ip), vehicle: saline)?
Answer: 98 % of control

Question: And the T/C [4]?
Answer: 110 % of control

Question: And the T/C (dose: 25.0 mg/kg/injection, schedule: Q07DX002 (ip), vehicle: water)?
Answer: 114 % of control

Question: What about the T/C [1] of the same molecule?
Answer: 105 % of control

Question: What about the T/C (dose: 50.0 mg/kg/injection, schedule: Q07DX002 (ip), vehicle: water) of the same molecule?
Answer: 87 % of control

Question: What about the T/C [2] of the same molecule?
Answer: 80 % of control

Question: For `CN1CCN(c2ccc3nc(-c4ccc5nc(-c6ccc(O)cc6)[nH]c5c4)[nH]c3c2)CC1`, which T/C [4] is on record?
Answer: 119 % of control

Question: What about the T/C [1] of the same molecule?
Answer: 116 % of control

Question: What about the T/C [2] of the same molecule?
Answer: 70 % of control

Question: And the T/C [3]?
Answer: 97 % of control

Question: `COc1cc2cc(c1Cl)N(C)C(=O)C[C@H](OC(=O)[C@H](C)N(C)C(C)=O)[C@]1(C)O[C@H]1[C@H](C)[C@@H]1C[C@@](O)(NC(=O)O1)[C@H](OC)C=C/C=C(\C)C2` was tested. Which T/C (dose: 0.01 mg/kg/injection, schedule: Q07DX003 (ip), vehicle: Klucel (hydroxypropylcellulose) (HPC)) did it give?
Answer: 99 % of control

Question: What about the T/C (dose: 0.03 mg/kg/injection, schedule: Q07DX003 (ip), vehicle: Klucel (hydroxypropylcellulose) (HPC)) of the same molecule?
Answer: 114 % of control

Question: And the T/C (dose: 0.06 mg/kg/injection, schedule: Q07DX003 (ip), vehicle: Klucel (hydroxypropylcellulose) (HPC))?
Answer: 84 % of control

Question: What about the T/C (dose: 0.12 mg/kg/injection, schedule: Q07DX003 (ip), vehicle: Klucel (hydroxypropylcellulose) (HPC)) of the same molecule?
Answer: 73 % of control

Question: What about the T/C (dose: 0.25 mg/kg/injection, schedule: Q07DX003 (ip), vehicle: Klucel (hydroxypropylcellulose) (HPC)) of the same molecule?
Answer: 164 % of control

Question: And the T/C (dose: 0.5 mg/kg/injection, schedule: Q07DX003 (ip), vehicle: Klucel (hydroxypropylcellulose) (HPC))?
Answer: 67 % of control

Question: And the T/C (dose: 30.0 micrograms/kg/injection, schedule: Q07DX003 (ip), vehicle: Klucel (hydroxypropylcellulose) (HPC))?
Answer: 116 % of control

Question: And the T/C (dose: 125.0 micrograms/kg/injection, schedule: Q07DX003 (ip), vehicle: Klucel (hydroxypropylcellulose) (HPC))?
Answer: 120 % of control

Question: And the T/C (dose: 250.0 micrograms/kg/injection, schedule: Q07DX003 (ip), vehicle: Klucel (hydroxypropylcellulose) (HPC))?
Answer: 90 % of control

Question: And the T/C (dose: 500.0 micrograms/kg/injection, schedule: Q07DX003 (ip), vehicle: Klucel (hydroxypropylcellulose) (HPC))?
Answer: 75 % of control

Question: And the T/C (dose: 1000.0 micrograms/kg/injection, schedule: Q07DX003 (ip), vehicle: Klucel (hydroxypropylcellulose) (HPC))?
Answer: 57 % of control

Question: `[I][Hg][CH2]C1COC([CH2][Hg][I])CO1` (stereo not drawn) was tested. Which T/C (dose: 6.25 mg/kg/injection, schedule: Q07DX002 (ip), vehicle: suspension in saline) did it give?
Answer: 67 % of control

Question: And the T/C (dose: 50.0 mg/kg/injection, schedule: Q07DX002 (ip), vehicle: suspension in saline)?
Answer: 120 % of control
